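Grown in 96-well plates, cells were treated for 48 hours with each compound at five concentrations. Insufficient inhibition: endpoint recorded as highest concentration tested. GI50 marks 50% less growth. At the TGI there is no net growth.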
What was measured:
Assay in all cases: NCI tumour cell line growth inhibition, 48 h
786-0 renal = test system: 786-0 renal
A549 NSCLC = test system: A549 NSCLC
CAKI-1 renal = test system: CAKI-1 renal
HOP-92 NSCLC = test system: HOP-92 NSCLC
RPMI-8226 leukemia = test system: RPMI-8226 leukemia
SK-MEL-2 melanoma = test system: SK-MEL-2 melanoma
SK-MEL-28 melanoma = test system: SK-MEL-28 melanoma
SN12C renal = test system: SN12C renal
T-47D breast = test system: T-47D breast
TK-10 renal = test system: TK-10 renal

| SMILES | TGI (786-0 renal) [µM] | TGI (A549 NSCLC) [µM] | TGI (CAKI-1 renal) [µM] | TGI (HOP-92 NSCLC) [µM] | TGI (RPMI-8226 leukemia) [µM] | TGI (SK-MEL-2 melanoma) [µM] | TGI (SK-MEL-28 melanoma) [µM] | TGI (SN12C renal) [µM] | TGI (T-47D breast) [µM] | TGI (TK-10 renal) [µM] | GI50 (786-0 renal) [µM] | GI50 (A549 NSCLC) [µM] | GI50 (CAKI-1 renal) [µM] | GI50 (HOP-92 NSCLC) [µM] | GI50 (RPMI-8226 leukemia) [µM] | GI50 (SK-MEL-2 melanoma) [µM] | GI50 (SK-MEL-28 melanoma) [µM] | GI50 (SN12C renal) [µM] | GI50 (T-47D breast) [µM] | GI50 (TK-10 renal) [µM] |
| --- | --- | --- | --- | --- | --- | --- | --- | --- | --- | --- | --- | --- | --- | --- | --- | --- | --- | --- | --- | --- |
| CSC(=S)N/N=C(\C)c1cccc(C)n1 | 28 | 29.1 | 23.6 | 13.9 | 1.51 | 16.5 | 63.5 | 21.9 | > 67.5 | 33.9 | – | – | – | – | – | – | – | – | – | – |
| CCN(CCO)CC(C)Nc1ccc([N+](=O)[O-])c2sc3ccccc3c(=O)c12 (stereo not given) | 3.97 | 1.97 | 1.09 | 7.7 | 4 | 3.64 | 10.3 | 18.4 | 26.8 | 11.7 | 1.37 | 0.535 | 0.304 | 1.6 | 1.26 | 1.23 | 2.68 | 2.15 | 2.68 | 1.44 |
| CN(CC(N)=O)C(=O)N(CCCl)N=O | > 100 | > 100 | > 100 | > 100 | > 100 | > 100 | > 100 | > 100 | > 100 | > 100 | – | – | – | – | – | – | – | – | – | – |
| N#Cc1c(N)[nH]c2ccc(Sc3ccccc3)cc12 | 8.1 | 12.1 | 9.27 | 19.8 | 8.65 | 17.5 | 17.4 | 6.64 | 23 | 20.8 | – | – | – | – | – | – | – | – | – | – |
| Cc1ccc(NC(=O)c2ccccc2C(=O)O)cc1C | > 100 | > 100 | > 100 | > 100 | > 100 | > 100 | > 100 | > 100 | > 100 | > 100 | – | – | – | – | – | – | – | – | – | – |
| Cn1cc(-c2nonc2-c2cn(C)c3ccccc23)c2ccccc21 | > 100 | > 100 | > 100 | > 100 | > 100 | > 100 | > 100 | > 100 | > 100 | > 100 | 1.63 | 1.22 | 0.653 | 4.16 | 0.967 | 1.22 | 4.68 | 1.76 | 4.77 | 6.23 |
| Cn1cncc1CC1COC(=O)C1C(O)c1ccccc1 (stereo not given) | > 100 | > 100 | > 100 | > 100 | > 100 | > 100 | > 100 | > 100 | > 100 | > 100 | – | – | – | – | – | – | – | – | – | – |
| COc1ccc(-c2cc(=O)c3c(OC)c(OC)c(OC)c(OC)c3o2)cc1 | > 100 | > 100 | > 100 | > 100 | > 100 | > 100 | > 100 | > 100 | 59.5 | > 100 | – | – | – | – | – | – | – | – | – | – |
| C[C@@H]1O[C@@H](O[C@H]2CC[C@@]3(C)[C@H](CCC4[C@@H]3C(O)C[C@]3(C)[C@@H](c5ccc(=O)oc5)CC[C@]43O)C2)[C@H](O)[C@H](O)[C@H]1O (stereo not given in full) | 0.0169 | 0.00441 | 0.0154 | 0.0216 | 0.0278 | 0.0163 | 0.0119 | 0.758 | 0.0241 | 0.00555 | 0.00409 | < 0.00325 | 0.0042 | 0.00786 | 0.00792 | 0.00741 | 0.0062 | < 0.00325 | < 0.00325 | < 0.00325 |
| CCCCCn1sc(=O)n(Cc2ccc(CNC(=O)OCc3ccc4cccc(O)c4n3)cc2)c1=O | 2.89 | 5.57 | 2.17 | 2.97 | 11.2 | 3.47 | 2.94 | 2.82 | 4.52 | 3.05 | 1.17 | 2.12 | 0.935 | 1.21 | 1.56 | 1.72 | 1.6 | 1.49 | 1.79 | 1.19 |
| N/N=C1\CC(=O)NC(=O)N1 | > 100 | > 100 | > 100 | > 100 | > 100 | > 100 | > 100 | > 100 | > 100 | > 100 | – | – | – | – | – | – | – | – | – | – |
| COc1cc2c(c(OC)c1OC)-c1ccc(SC)c(=O)cc1[C@@H](NC1OC(CO)C(O)C(O)C1O)CC2 (stereo not given in full) | > 100 | > 100 | > 100 | > 57.9 | > 100 | 0.081 | > 100 | > 100 | > 100 | 31.2 | 0.0575 | 0.0385 | 0.0727 | 0.0373 | 0.0444 | 0.0237 | 1.65 | 0.0557 | > 74.9 | 0.0478 |
| CCn1c2ccccc2c2cc(/C=C(/C#N)C(N)=O)ccc21 | > 100 | > 100 | > 77.9 | > 91.4 | > 84.7 | > 60.4 | > 100 | > 100 | > 100 | > 28.8 | 10.6 | 20.3 | 5.53 | 16.9 | 7.94 | 11.4 | 40.1 | 43.6 | 3.33 | 2.31 |
| CCOc1nc(N)nc(C)c1N=Nc1ccc(Cl)cc1 | > 100 | > 100 | > 100 | 88 | 88.4 | > 100 | > 100 | 86.4 | > 100 | > 100 | – | – | – | – | – | – | – | – | – | – |

Source: PubChem BioAssay (NCI)
